From ChEMBL document CHEMBL5104128, “The discovery of a non-competitive GOT1 inhibitor, hydralazine hydrochloride, via a coupling reaction-based high-throughput screening assay” (Bioorg Med Chem Lett, 2022)
Counter-ions that a name gives are not always drawn. Values belong to the compound of their own block, whether it stands above or below them.

Experiments:
[1] = target: T1, Aspartate aminotransferase, cytoplasmic (Homo sapiens, UniProt P17174); assay: Inhibition of C-terminal His6-tagged human recombinant GOT1 expressed in Escherichia coli BL21 (DE3) cells using aspartic acid and alpha-ketoglutaric acid as substrates incubated in presence of MDH1 and NADH
[2] = target: T1, Aspartate aminotransferase, cytoplasmic; assay: Inhibition of GOT1 (unknown origin) using aspartic acid and alpha-ketoglutaric acid as substrates assessed as reduction in absorbance of NADH incubated for 20 mins in presence of MDH1 and NADH by HTS assay
[3] = target: T1, Aspartate aminotransferase, cytoplasmic; assay: Noncompetitive inhibition of GOT1 (unknown origin) using alpha-Ketoglutaric acid as substrate assessed as inhibition constant by Michaelis-Menten equation based kinetic analysis
[4] = target: T1, Aspartate aminotransferase, cytoplasmic; assay: Noncompetitive inhibition of GOT1 (unknown origin) using aspartic acid as substrate assessed as inhibition constant by Michaelis-Menten equation based kinetic analysis
[5] = target: T1, Aspartate aminotransferase, cytoplasmic; assay: Inhibition of GOT1 (unknown origin)
[6] = target: T1, Aspartate aminotransferase, cytoplasmic; assay: Binding affinity to GOT1 (unknown origin) assessed as dissociation constant by microscale thermophoresis assay
[7] = target: T1, Aspartate aminotransferase, cytoplasmic; assay: Inhibition of human recombinant GOT1 using aspartic acid and alpha-ketoglutaric acid as substrates incubated in presence of MDH1 and NADH

T1 sequence (P17174 whole entry): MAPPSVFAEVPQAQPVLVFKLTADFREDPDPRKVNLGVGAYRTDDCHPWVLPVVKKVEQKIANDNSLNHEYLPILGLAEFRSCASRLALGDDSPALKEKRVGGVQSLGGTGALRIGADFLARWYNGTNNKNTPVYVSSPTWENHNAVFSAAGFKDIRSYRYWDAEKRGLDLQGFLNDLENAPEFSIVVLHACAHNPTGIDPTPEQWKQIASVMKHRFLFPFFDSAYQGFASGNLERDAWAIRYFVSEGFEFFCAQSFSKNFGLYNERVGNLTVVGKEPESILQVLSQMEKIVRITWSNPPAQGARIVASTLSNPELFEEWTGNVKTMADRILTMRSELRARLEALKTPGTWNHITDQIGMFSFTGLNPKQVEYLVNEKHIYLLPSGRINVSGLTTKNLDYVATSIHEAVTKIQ

IC50 [1]: 21.8 µM
SMILES: COc1ccc(-c2ccc3cc(C(=O)O)ccc3c2)cc1C12CC3CC(CC(C3)C1)C2 [ADAPALENE]

IC50 [2]: > 100 µM
SMILES: Nc1cccc2cnncc12

Ki [3]: 20.2 µM
Ki [4]: 14.7 µM
IC50 [5]: 26.6 µM
Kd [6]: 16.5 µM
SMILES: NNc1nncc2ccccc12 [HYDRALAZINE HYDROCHLORIDE]

IC50 [2]: > 100 µM
SMILES: Nc1cccnn1

IC50 [2]: > 100 µM
SMILES: NNc1nnc(NN)c2ccccc12 [DIHYDRALAZINE]

IC50 [5]: 8 µM
SMILES: NC1Cc2ccccc2N(O)C1=O (centres undefined)

IC50 [2]: 26.6 µM
SMILES: NNc1nncc2ccccc12 [HYDRALAZINE]

IC50 [7]: 2.92 µM
SMILES: CC(C)=CCc1cc(/C=C2\OC(=O)C(c3cc(CC=C(C)C)c(O)cc3O)=C2O)ccc1O

IC50 [2]: 29.4 µM
SMILES: NNc1cccnn1

IC50 [5]: 5.39 µM
SMILES: O=C1Cc2cc(CCN3CCN(c4nsc5ccccc45)CC3)c(Cl)cc2N1 [ZIPRASIDONE]

IC50 [2]: 65.4 µM
SMILES: NNc1nnc(Cl)c2ccccc12
